Literature values, collected in PMC3974845 (International journal of peptide research and therapeutics, 2013).
Where two headings read alike, the source gives them in different places. Values belong to the substance of their own block, whether it stands above or below them. [ ]: non-standard residue; d: D form. pY = N[C@@H](Cc1ccc(OP(=O)(O)O)cc1)C(=O)O

Target: full length Stat3 (SH2 domain) (Homo sapiens, UniProt P40763)
[1] = affinity for Stat3, Table 1, ref Coleman et al. 2005
[2] = affinity for Stat3, Table 1, ref Mandal et al. 2009b
[3] = affinity for Stat3, Table 1, ref Mandal et al. 2011

full length Stat3 (SH2 domain), sequence (P40763 whole entry, species assumed, the tested form may be a part): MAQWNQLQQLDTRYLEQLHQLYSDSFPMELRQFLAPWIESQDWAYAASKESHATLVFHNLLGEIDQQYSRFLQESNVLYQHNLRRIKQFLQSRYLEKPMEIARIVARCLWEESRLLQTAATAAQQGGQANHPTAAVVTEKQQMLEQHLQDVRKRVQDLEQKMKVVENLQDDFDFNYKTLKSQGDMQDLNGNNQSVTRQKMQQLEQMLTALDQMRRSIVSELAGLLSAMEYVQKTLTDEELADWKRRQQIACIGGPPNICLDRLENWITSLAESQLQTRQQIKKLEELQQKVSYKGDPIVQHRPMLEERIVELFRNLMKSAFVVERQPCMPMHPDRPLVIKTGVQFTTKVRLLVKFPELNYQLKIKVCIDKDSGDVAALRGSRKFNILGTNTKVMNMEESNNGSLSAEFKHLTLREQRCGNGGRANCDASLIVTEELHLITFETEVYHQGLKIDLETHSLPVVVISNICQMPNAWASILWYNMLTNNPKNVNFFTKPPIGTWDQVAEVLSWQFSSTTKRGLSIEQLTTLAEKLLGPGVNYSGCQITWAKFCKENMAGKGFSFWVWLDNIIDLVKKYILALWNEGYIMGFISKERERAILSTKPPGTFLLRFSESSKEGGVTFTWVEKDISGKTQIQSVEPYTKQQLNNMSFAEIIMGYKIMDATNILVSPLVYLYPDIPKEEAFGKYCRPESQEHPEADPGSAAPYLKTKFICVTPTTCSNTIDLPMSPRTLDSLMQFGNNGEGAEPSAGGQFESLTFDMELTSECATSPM

Substance: Ac-pTyr-Leu-Pro-Gln-Val- NH2 (Ac-[pY]LPQV-NH2; SMILES CC(=O)N[C@@H](Cc1ccc(OP(=O)(O)O)cc1)C(=O)N[C@@H](CC(C)C)C(=O)N1CCC[C@H]1C(=O)N[C@@H](CCC(N)=O)C(=O)N[C@H](C(N)=O)C(C)C) [Compound 11]
- IC50 [1]: 739 ± 31 nM

Substance: Ac-pTyr-Leu-mPro-Gln-Val- NH2 [Compound 12]
- IC50 [1]: 265 ± 14 nM

- IC50 [2]: 138 ± 8 nM
Substance: pCinn-Leu-Pro-Gln-NHBn [Compound 13]

Substance: pCinn-Leu-mPro-Gln-NHBn [Compound 14]
- IC50 [2]: 68 ± 8 nM

- IC50 [3]: 70 ± 15 nM
Substance: βMpCinn-Leu-Pro-Gln- NHBn [Compound 15]

Substance: βMpCinn-Leu-mPro-Apa [Compound 18]
- IC50 [3]: 88 ± 11 nM
- IC50 (βMpCinn-Leu-Xaa-Apa series, fluorescence polarization, ref Mandal et al. 2011): 88 ± 11 nM

Substance: βMpCinn-Leu-mPro-Gln- NHBn [Compound 16]
- IC50 [3]: 46 ± 5 nM
